From patent publication US6242216A, “Nucleic acids encoding a functional human purinoreceptor P2X2 and P2X4, and methods of production and use thereof” (Abbott Laboratories, priority 1998, dated 2001) come the findings set out here.

For orientation: EC50 means the concentration giving half of the maximal effect.

Where “and” joins values, the source holds several entries; their conditions need not be identical. Equal entries are not always repeated. Where two headings read alike, the source gives them in different places.

In one test the target is T1, hP2X2a receptors (Homo sapiens, UniProt Q9UBL9).
T1 construct: expressed in transfected cells; host or cells: Xenopus laevis oocytes, cytoplasmic injection of 50 ng in vitro transcribed RNA, one subtype per cell
T1 sequence (Q9UBL9 1-471): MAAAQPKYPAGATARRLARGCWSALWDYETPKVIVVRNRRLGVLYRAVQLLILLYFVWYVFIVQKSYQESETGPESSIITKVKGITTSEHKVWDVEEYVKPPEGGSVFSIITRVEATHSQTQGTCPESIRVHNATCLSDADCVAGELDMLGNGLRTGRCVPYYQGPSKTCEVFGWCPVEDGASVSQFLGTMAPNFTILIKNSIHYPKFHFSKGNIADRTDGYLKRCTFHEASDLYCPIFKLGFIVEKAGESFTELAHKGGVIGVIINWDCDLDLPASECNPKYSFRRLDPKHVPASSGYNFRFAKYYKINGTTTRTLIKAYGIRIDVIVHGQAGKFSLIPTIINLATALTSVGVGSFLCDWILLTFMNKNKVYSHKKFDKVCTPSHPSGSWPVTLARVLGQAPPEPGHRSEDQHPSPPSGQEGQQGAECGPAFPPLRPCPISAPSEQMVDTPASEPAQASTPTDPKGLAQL
Nature of the test: Two-electrode voltage-clamp of Xenopus oocytes expressing hP2X2a receptors. In kind it is cell-based. Here is the method:
(§1) To assess function of the human P2X2 receptors, RNA was synthesized from the clones using the T7 bacterial promoter present on the pCRscript vector and reagents from Ambion (Message Machine; Ambion, Inc., Austin Tex.).
(§2) Adult female frogs (Xenopus laevis) were anesthetized with 0.2% tricaine before surgery. During surgery, sections of one ovary were removed and oocytes were denuded of overlying follicle cells by agitation for 1-2 hours in 2 mg/ml collagenase (Sigma type IA) in low-Ca^2+ Barth's solution containing (in mM): 88 NaCl, 2.5 KCl, 1.0 MgCl2 10 Na-HEPES (pH 7.4) plus 100 μg/ml gentamicin. Selection of stage V and VI oocytes was begun after approximately 50% of the cells were denuded. Cytoplasmic injections of 50 ng hP2X2a-d RNA were performed on denuded oocytes using a glass microelectrode. Only one receptor subtype RNA was injected per cell. Oocytes were used for recording 1-2 days after injection and were maintained at 16-19° C. in normal Barth's solution (incubation medium in mM): 90 NaCl, 1.0 KCl, 0.66 NaNO3, 0.74 CaCl2, 0.82 MgCl2, 2.4 NaHCO3, 2.5 Na-pyruvate, 10 Na-HEPES (pH 7.4) plus 100 μg/ml gentamicin.
(§3) The standard recording solution contained (in mM): 96 NaCl, 2.0 KCl, 1.8 BaCl2, 1.0 MgCl2, 5.0 Na-pyruvate, and 5.0 Na-HEPES (pH 7.4). BaCl2 was replaced with CaCl2 (1 mM) in some experiments without significant effects on the pharmacological properties of the receptors. All oocyte solutions were diluted in distilled H2 O from 10×stock solutions. Concentrated stocks of agonists and antagonists were made in distilled H2 O and then serially diluted in recording solution to desired final concentrations. All chemicals and agonists (ATP and α,βme-ATP) were obtained from Sigma Chemical Company.
(§4) Transmembrane currents were recorded using two-electrode voltage-clamp techniques with an Axoclamp-2 A amplifier, and were collected and analyzed using pCLAMP software (Axon Instruments). Electrodes (1.5-2.0 M'.OMEGA.) were filled with 120 mM KCl. Responses to ATP and α,βme-ATP were routinely recorded at room temperature while the oocyte membrane was voltage-clamped at -60 mV. […]
(In two-electrode clamp one electrode senses voltage and the other passes current.)

Another test deals with T2, hP2X2b receptors (Homo sapiens, UniProt Q9UBL9).
T2 construct: expressed in transfected cells; host or cells: Xenopus laevis oocytes, cytoplasmic injection of 50 ng in vitro transcribed RNA, one subtype per cell
T2 sequence (Q9UBL9 1-404 isoform Q9UBL9-2): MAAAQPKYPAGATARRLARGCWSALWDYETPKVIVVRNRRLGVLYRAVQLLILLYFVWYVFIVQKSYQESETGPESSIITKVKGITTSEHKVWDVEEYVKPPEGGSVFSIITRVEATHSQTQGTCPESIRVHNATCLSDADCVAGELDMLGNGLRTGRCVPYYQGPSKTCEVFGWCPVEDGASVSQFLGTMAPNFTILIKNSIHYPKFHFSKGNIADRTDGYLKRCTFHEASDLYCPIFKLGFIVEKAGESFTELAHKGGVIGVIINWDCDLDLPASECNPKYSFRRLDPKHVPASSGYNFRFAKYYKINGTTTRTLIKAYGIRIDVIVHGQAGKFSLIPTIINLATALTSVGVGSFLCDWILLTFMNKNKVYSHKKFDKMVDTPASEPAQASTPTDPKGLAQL
Put plainly: Two-electrode voltage-clamp of Xenopus oocytes expressing hP2X2b receptors. The class given is cell-based. The procedure: as §1, §2, §3, §4

For the next test, the system named is hP2X2c. Nature of the test: Two-electrode voltage-clamp of Xenopus oocytes injected with hP2X2c RNA. The class given is cell-based, human. Particulars: 30 μM ATP, transient external application. Here is the method:
as §1
as §2, with “Oocytes were used for recording 1-2 days after injection and were maintained at 16-19° C. in normal Barth's solution (incubation medium in mM): 90 NaCl, 1.0 KCl, 0.66 NaNO3, 0.74 CaCl2, 0.82 MgCl2, 2.4 NaHCO3, 2.5 Na-pyruvate, 10 Na-HEPES (pH 7.4) plus 100 μg/ml gentamicin.” left out
(§5) Transmembrane currents were recorded using two-electrode voltage-clamp techniques with an Axoclamp-2 A amplifier, and were collected and analyzed using pCLAMP software (Axon Instruments). […] Responses to ATP and α,βme-ATP were routinely recorded at room temperature while the oocyte membrane was voltage-clamped at -60 mV. […]

Another test relates to hP2X2d. Nature of the test: Two-electrode voltage-clamp of Xenopus oocytes injected with hP2X2d RNA. The note with it: 30 μM ATP, transient external application. The class given is cell-based, human. The procedure:
as §1
as §2, with “Oocytes were used for recording 1-2 days after injection and were maintained at 16-19° C. in normal Barth's solution (incubation medium in mM): 90 NaCl, 1.0 KCl, 0.66 NaNO3, 0.74 CaCl2, 0.82 MgCl2, 2.4 NaHCO3, 2.5 Na-pyruvate, 10 Na-HEPES (pH 7.4) plus 100 μg/ml gentamicin.” left out
as §5

Another test concerns the target T3, human P2X4 receptor (Homo sapiens, UniProt Q99571).
T3 construct: expressed in transfected cells; host or cells: Xenopus laevis oocytes, nuclear injection of P2X4-pCDNA3.1 DNA (10 ng) or cytoplasmic injection of RNA (50 ng)
T3 sequence (Q99571 1-388): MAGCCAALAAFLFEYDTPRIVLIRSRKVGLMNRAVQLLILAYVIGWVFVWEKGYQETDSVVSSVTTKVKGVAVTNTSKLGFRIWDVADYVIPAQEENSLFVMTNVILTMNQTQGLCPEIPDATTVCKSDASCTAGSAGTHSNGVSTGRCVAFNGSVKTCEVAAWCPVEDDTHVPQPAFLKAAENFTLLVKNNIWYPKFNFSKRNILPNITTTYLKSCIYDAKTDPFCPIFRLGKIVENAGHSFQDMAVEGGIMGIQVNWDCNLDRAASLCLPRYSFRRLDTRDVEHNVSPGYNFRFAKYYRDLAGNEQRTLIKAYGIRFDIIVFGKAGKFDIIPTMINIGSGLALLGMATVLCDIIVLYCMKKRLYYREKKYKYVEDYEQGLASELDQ
Nature of the test: Two-electrode voltage-clamp of Xenopus oocytes expressing recombinant human P2X4 receptors. In kind it is cell-based. The procedure:
Responses were measured at a holding potential of -60 mV in modified Barth's solution containing 10 mM BaCl2 and lacking CaCl2 and MgCl2. However, in some experiments, the cell potential was intentionally varied in order to determine the response current-voltage relationship. Agonist was applied briefly using a computer-controlled solenoid valve and a push/pull applicator positioned to within 200-400 μm from the oocyte. Responses were recorded by computer in synchrony with agonist application. Antagonists were included with agonist in the push/pull applicator and were applied to the bath by superfusion for at least 3 minutes before application of agonist. Responses were quantified by measuring the peak amplitude.
The clone was grown up and prepared in large scale using the QlAgen maxiprep DNA preparation system according to the manufacturer's instructions. The DNA was ethanol precipitated and resuspended in TE buffer. For RNA production, the P2X4 -pCNDA3.1 cvonstruct was linearized by digestion with the restriction enzyme Notl and P2X4 messenger RNA was produced using the T7 promoter in this vector and the Ambion mMessage mMachine in vitro transcription kit according to the manufacturer's instructions.
For functional analysis of human P2X4 receptors, 10 ng of human P2X4 receptor DNA prepared as described above was injected into the nucleus of Xenopus oocytes. Alternatively, 50 ng of human P2X4 receptor RNA prepared as described above was injected into the ooxyte cytoplasm. Oocytes were incubated in normal Barth's solution containing 100 μg/ml gentamicin for 2-7 days following injection. The response to 10 μM ATP was then recorded.

On to `Nc1ncnc2c1ncn2[C@@H]1O[C@H](COP(=O)(O)OP(=O)(O)OP(=O)(O)O)[C@@H](O)[C@H]1O` [ATP], for which the “Hill coefficient (nH)” value on hP2X2a receptors (oocytes expressing hP2X2a, four cells) is on record as 1.5; on hP2X2b receptors (oocytes expressing hP2X2b, three cells) it was 1.5. Moreover, the EC50 was 16000 nM at hP2X2a receptors (oocytes expressing hP2X2a, four cells, -60 mV, read-out: mean ATP EC50 (peak inward current)); 20000 nM on hP2X2b receptors (oocytes expressing hP2X2b, three cells, -60 mV, read-out: mean ATP EC50 (peak inward current)); ~2000 nM and 1000 to 2000 nM on human P2X4 receptor (DNA-injected oocytes, concentration-response 0.1-1000 μM ATP); 1000 to 2000 nM at human P2X4 receptor (RNA-injected oocytes, read-out: ATP EC50). Besides, the “agonist effect on receptor current” value with hP2X2c and with hP2X2d was “had no effect” throughout. Moreover, the “mixed-conductance cation current on extracellular application of ATP” value at human P2X4 receptor (oocytes injected with human P2X4 receptor DNA) is 100-1000 nA.

With `Cc1ccc(C(=O)Nc2ccc(S(=O)(=O)O)c3cc(S(=O)(=O)O)cc(S(=O)(=O)O)c23)cc1NC(=O)c1cccc(NC(=O)Nc2cccc(C(=O)Nc3cc(C(=O)Nc4ccc(S(=O)(=O)O)c5cc(S(=O)(=O)O)cc(S(=O)(=O)O)c45)ccc3C)c2)c1` [suramin], the “antagonism of ATP-induced currents” value at human P2X4 receptor (DNA-injected oocytes, suramin 10 μM, ATP 10 μM) is reported as “failed to depress”. For the same compound, the “antagonism of ATP responses” value at human P2X4 receptor (RNA-injected oocytes, suramin 1 μM, ATP 3 μM) is listed as “failed to depress”; on human P2X4 receptor (RNA-injected oocytes, suramin 10 μM, ATP 3 μM) it was “failed to depress”. Further, the remaining activity at 100 µM on human P2X4 receptor (RNA-injected oocytes, suramin 100 μM, ATP 3 μM, read-out: ATP response remaining, % of control) is roughly 80%.

On to `Nc1ncnc2c1ncn2[C@@H]1O[C@H](COP(=O)(O)CP(=O)(O)OP(=O)(O)O)[C@@H](O)[C@H]1O` [αβMe-ATP, α,β-methylene-ATP], for which the “agonist effect on receptor current” value at hP2X2a receptors (100 μM agonist, hP2X2a) is listed as “had no effect”; on hP2X2b receptors (100 μM agonist, hP2X2b), “had no effect”. Also, the Emax on human P2X4 receptor (RNA-injected oocytes, read-out: maximal current relative to maximal ATP current) was 20 to 25%.
